Source: publication PMC7614683, “A small molecule PI3Kα activator for cardioprotection and neuroregeneration” (Nature, 2023)
Read-outs that look alike come from different tables or passages of the source.

Tests used:
Assay in all cases: SelectScreen Adapta
Type in all cases: biochemical
GSG2 (Haspin) = target: T1, GSG2 (Haspin) (Homo sapiens, UniProt Q8TF76)
T1 sequence (Q8TF76 1-798): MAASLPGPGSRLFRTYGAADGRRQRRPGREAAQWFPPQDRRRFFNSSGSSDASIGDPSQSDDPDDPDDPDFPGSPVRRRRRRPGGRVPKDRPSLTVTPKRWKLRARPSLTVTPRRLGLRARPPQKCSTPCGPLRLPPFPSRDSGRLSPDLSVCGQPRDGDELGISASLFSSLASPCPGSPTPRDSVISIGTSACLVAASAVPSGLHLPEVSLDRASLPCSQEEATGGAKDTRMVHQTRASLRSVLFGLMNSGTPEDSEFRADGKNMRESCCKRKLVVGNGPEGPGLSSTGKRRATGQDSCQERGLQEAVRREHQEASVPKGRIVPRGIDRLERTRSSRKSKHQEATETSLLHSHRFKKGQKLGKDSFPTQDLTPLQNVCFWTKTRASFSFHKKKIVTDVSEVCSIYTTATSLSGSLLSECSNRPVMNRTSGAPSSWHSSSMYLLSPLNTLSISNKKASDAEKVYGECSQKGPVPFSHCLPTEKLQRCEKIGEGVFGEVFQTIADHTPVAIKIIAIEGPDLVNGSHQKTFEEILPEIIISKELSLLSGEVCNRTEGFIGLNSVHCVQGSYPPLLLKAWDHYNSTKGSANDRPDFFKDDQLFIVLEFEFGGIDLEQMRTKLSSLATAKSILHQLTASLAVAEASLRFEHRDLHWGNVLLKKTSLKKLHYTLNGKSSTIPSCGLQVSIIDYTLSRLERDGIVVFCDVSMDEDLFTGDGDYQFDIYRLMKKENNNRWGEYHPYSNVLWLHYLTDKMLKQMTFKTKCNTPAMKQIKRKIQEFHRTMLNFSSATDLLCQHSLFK
Protocol: (§1) 133 protein kinases and 7 lipid kinases were counterscreened, with 1938 used at 1 μM, using the Adapta, Lantha and Z-LYTE assays (SelectScreen Kinase Profiling Service; Thermofisher – experimental details of these assays can be found here: https://www.thermofisher.com/uk/en/home/industrial/pharma-biopharma/drug-discovery-development/target-and-lead-identification-and-validation/kinasebiology/kinase-activity-assays.html. The tree represention in KinMap[59] generated courtesy of Cell Signaling Technology, Inc. (www.cellsignal.com). mTORC1 (mTOR/RAPTOR/LST8) protein complex and ATM kinase and substrates were produced as previously described[57],[60]. Screening of 1938 was conducted using SuperSep Phos-Tag 50 μmol/l 100 x 100 x 6.6 mm 17-well (192-18001/199-18011) gels. For ATM assays, 100 nM ATM was incubated for 30 min at 30°C with 5 μM GST-p53 and 1 mM ATP, in the absence or presence of 200 μM 1938 in ATM Kinase Buffer (50 mM HEPES pH 7.5, 100 mM NaCl, 10% glycerol, 2 mM […], 5 mM MgCl2). As a positive control for ATM activation, the same reaction was carried out with 100 nM ATM/5 μM GST-p53/1 mM ATP in the presence of 100 nM Mre11-Rad50-Nbs1 (MRN) complex, a known activator of ATM[61]. For mTORC1 assays, 50 nM mTORC1 complex (mTOR/LST8/RAPTOR) was incubated for 3 h at 30°C with 15 μM 4E-BP1, 10 mM MgCl2 and 250 μM ATP, in the absence or presence of 200 μM 1938. As a ‘positive’ control, a higher concentration (150 nM) of mTORC1 complex (mTOR/LST8/RAPTOR) was incubated for 3 h at 30°C with 15 μM 4E-BP1, 10 mM MgCl2 and 250 μM ATP. Kinase reactions were quenched by addition of SDS-PAGE Loading Buffer (as per manufacturer’s instructions) and freezing at -20°C before being run on the Phos-tag gels at 150 V for 90 min. Gels were then stained using InstantBlue™ Coomassie, and quantified using BioRad Image Lab Software. Kinase assays were carried out in triplicate.

LRRK2 = LRRK2 (Homo sapiens, UniProt Q5S007)
Protocol: as §1

NUAK1 (ARK5) = target: T2, NUAK1 (ARK5) (Homo sapiens, UniProt O60285)
T2 sequence (O60285 1-661): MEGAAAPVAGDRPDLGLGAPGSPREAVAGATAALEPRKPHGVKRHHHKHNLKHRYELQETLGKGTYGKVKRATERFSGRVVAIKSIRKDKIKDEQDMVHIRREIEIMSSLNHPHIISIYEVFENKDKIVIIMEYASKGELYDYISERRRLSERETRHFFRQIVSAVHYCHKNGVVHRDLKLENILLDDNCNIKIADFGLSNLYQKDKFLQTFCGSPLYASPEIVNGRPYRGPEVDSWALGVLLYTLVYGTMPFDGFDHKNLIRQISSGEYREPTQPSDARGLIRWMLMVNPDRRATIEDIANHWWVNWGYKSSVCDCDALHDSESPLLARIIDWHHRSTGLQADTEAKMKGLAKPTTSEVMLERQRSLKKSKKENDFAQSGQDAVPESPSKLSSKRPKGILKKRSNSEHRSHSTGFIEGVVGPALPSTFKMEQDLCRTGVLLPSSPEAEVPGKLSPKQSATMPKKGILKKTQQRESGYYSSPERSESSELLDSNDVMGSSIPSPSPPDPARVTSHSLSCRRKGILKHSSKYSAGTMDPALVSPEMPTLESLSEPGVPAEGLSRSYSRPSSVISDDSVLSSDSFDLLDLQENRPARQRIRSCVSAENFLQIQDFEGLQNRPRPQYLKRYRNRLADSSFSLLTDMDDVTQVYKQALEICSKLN
Protocol: as §1

PI4KB (PI4K beta) = PI4KB (PI4K beta) (Homo sapiens, UniProt Q9UBF8)
PI4KB (PI4K beta), sequence (Q9UBF8 whole entry): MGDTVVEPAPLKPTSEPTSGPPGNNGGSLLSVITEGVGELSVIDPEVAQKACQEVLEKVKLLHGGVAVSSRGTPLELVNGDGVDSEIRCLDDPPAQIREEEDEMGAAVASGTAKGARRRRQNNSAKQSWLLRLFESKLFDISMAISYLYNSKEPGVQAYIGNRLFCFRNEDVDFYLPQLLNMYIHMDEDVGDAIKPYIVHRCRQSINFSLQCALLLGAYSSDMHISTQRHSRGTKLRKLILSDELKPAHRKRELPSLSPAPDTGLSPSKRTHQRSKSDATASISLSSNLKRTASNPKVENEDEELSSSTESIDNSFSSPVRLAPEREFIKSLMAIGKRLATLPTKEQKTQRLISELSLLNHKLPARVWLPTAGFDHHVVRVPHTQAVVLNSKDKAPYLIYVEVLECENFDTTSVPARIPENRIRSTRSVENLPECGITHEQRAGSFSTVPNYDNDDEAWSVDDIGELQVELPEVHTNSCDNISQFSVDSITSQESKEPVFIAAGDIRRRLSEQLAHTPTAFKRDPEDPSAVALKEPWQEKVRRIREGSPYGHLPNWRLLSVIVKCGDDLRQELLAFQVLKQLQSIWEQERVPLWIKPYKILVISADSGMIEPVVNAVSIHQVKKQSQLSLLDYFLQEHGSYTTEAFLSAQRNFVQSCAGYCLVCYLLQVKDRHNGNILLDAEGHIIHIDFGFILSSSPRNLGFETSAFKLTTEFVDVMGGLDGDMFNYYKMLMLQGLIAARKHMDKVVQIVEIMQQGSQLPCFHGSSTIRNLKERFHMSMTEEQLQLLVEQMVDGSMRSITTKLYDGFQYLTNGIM
Protocol: as §1

[1] = target: PIK3CB/PIK3R1 (p110 beta/p85 alpha) (Homo sapiens, UniProt P42338)
PIK3CB/PIK3R1 (p110 beta/p85 alpha), sequence (P42338 whole entry): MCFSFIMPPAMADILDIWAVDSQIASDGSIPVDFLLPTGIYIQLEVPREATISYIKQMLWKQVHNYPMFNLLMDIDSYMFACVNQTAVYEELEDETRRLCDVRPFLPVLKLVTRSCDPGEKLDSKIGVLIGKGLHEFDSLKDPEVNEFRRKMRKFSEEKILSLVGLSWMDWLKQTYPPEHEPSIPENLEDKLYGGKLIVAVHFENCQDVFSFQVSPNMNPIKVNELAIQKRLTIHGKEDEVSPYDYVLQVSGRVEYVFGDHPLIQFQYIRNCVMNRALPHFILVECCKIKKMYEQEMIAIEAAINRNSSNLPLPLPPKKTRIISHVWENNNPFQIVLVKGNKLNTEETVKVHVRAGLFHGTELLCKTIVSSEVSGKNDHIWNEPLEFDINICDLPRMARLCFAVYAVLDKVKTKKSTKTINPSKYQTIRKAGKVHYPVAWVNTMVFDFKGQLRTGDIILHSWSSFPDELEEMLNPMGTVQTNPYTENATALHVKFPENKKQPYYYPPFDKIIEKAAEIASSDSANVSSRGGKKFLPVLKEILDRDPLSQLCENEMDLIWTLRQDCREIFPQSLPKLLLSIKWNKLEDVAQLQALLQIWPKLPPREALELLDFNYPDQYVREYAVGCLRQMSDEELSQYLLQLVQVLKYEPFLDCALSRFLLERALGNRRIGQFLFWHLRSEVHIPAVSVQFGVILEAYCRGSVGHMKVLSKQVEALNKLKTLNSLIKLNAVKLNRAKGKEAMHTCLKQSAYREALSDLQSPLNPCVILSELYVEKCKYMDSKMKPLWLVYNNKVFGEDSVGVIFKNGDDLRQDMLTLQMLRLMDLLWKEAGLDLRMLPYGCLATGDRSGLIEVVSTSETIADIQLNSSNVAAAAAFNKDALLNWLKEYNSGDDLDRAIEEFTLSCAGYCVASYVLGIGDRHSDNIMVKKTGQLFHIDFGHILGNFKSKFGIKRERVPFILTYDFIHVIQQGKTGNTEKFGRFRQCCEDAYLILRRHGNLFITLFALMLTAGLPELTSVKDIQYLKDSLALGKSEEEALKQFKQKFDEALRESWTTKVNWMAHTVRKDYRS
PIK3CB/PIK3R1 (p110 beta/p85 alpha), sequence (P27986 whole entry partner): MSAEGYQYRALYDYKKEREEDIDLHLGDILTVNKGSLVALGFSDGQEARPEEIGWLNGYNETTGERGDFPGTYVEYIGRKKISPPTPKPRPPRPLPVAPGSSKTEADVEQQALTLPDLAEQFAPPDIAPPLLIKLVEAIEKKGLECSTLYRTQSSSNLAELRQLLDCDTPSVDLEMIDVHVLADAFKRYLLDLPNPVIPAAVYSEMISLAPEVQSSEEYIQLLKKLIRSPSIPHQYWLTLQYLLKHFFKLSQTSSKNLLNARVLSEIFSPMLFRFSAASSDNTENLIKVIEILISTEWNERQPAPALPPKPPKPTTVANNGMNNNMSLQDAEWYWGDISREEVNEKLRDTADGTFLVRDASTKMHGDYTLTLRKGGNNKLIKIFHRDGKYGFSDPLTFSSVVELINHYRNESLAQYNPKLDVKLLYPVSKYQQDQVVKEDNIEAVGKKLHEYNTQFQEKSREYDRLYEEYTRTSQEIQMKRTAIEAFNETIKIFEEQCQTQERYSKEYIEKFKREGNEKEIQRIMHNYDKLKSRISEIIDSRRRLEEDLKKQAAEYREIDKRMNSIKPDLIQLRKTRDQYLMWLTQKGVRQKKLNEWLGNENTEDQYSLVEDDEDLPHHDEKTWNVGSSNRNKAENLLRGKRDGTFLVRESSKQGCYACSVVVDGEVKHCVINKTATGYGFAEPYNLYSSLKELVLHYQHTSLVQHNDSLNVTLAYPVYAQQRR
Protocol: as §1

[2] = target: PIK3CD/PIK3R1 (p110 delta/p85 alpha) (Homo sapiens, UniProt O00329)
PIK3CD/PIK3R1 (p110 delta/p85 alpha), sequence (O00329 whole entry): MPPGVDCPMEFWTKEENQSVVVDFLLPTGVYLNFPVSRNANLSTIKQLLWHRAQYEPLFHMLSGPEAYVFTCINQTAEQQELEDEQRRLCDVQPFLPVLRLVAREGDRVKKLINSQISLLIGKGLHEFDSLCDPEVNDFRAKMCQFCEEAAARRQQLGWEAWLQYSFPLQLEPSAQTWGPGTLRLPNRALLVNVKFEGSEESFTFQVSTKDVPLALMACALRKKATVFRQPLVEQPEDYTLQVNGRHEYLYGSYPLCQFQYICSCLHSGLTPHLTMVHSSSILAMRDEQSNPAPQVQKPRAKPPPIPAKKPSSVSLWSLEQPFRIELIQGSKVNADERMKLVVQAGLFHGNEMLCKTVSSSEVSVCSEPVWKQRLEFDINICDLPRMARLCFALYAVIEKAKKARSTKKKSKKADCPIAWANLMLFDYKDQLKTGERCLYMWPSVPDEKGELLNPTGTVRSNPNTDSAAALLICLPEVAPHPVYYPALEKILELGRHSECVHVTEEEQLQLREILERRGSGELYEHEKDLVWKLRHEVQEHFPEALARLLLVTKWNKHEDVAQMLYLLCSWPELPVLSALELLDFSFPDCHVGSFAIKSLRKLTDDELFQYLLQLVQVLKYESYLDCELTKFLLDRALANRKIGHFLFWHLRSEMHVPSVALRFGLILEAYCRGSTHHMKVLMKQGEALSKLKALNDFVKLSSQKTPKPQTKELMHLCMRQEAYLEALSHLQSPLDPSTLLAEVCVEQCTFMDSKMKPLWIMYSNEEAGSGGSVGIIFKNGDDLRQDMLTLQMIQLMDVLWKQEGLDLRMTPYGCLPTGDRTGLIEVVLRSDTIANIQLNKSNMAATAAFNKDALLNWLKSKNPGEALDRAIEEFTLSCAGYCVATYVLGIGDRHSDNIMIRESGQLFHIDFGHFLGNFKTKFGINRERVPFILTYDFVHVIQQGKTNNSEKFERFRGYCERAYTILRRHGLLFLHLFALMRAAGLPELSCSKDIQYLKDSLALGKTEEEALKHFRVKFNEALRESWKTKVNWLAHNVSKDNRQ
PIK3CD/PIK3R1 (p110 delta/p85 alpha), sequence (P27986 whole entry partner): as the sequence (P27986 whole entry partner) above
Protocol: as §1

PIK3CG (p110 gamma) = PIK3CG (p110 gamma) (Homo sapiens, UniProt P48736)
PIK3CG (p110 gamma), sequence (P48736 whole entry): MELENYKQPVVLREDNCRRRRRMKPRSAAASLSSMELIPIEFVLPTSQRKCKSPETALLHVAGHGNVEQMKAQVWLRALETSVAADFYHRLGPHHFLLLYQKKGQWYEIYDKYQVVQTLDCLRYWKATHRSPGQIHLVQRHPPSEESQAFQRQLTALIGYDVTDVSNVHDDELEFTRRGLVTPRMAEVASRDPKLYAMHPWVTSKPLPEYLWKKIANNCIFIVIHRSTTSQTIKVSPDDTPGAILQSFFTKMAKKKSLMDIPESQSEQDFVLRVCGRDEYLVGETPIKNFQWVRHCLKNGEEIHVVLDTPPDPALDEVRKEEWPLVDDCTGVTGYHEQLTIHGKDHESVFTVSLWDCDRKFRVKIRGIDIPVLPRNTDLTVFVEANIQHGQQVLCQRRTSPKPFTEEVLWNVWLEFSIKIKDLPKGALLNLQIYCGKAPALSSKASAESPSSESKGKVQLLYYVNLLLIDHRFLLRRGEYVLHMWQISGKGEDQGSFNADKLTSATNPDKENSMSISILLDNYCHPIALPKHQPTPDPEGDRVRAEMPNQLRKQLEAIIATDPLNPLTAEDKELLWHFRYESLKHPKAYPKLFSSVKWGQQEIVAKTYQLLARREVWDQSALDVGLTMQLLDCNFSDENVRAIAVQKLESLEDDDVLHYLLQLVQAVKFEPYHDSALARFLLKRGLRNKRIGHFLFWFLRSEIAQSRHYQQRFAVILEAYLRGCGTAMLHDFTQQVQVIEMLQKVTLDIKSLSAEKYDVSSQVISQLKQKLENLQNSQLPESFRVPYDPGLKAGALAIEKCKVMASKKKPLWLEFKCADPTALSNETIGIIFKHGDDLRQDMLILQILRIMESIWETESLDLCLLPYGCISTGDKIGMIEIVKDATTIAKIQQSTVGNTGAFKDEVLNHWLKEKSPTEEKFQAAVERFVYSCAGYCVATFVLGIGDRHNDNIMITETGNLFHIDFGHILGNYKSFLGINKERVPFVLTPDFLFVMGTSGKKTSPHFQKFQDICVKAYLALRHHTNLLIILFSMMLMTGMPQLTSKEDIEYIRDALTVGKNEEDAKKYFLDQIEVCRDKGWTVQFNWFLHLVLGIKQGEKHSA
Protocol: as §1

CCN1CCN(c2ccc(Nc3cc(Nc4cccc5c4N(C(C)=O)CC5)ccn3)cc2)CC1 [Compound 1938]
inhibition at 1 µM (GSG2 (Haspin); read-out: % Inhibition Point 1): -18% | inhibition at 1 µM (GSG2 (Haspin); read-out: % Inhibition Point 2): 2.17% | inhibition at 1 µM (GSG2 (Haspin); read-out: % Inhibition mean): -8% | inhibition at 1 µM (LRRK2; read-out: % Inhibition Point 1): 13% | inhibition at 1 µM (LRRK2; read-out: % Inhibition Point 2): 18% | inhibition at 1 µM (LRRK2; read-out: % Inhibition mean): 16% | inhibition at 1 µM (NUAK1 (ARK5); read-out: % Inhibition Point 1): 45% | inhibition at 1 µM (NUAK1 (ARK5); read-out: % Inhibition Point 2): 39% | inhibition at 1 µM (NUAK1 (ARK5); read-out: % Inhibition mean): 42% | inhibition at 1 µM (PI4KB (PI4K beta); read-out: % Inhibition Point 1): -1.1% | inhibition at 1 µM (PI4KB (PI4K beta); read-out: % Inhibition Point 2): 0.786% | inhibition at 1 µM (PI4KB (PI4K beta); read-out: % Inhibition mean): -0.157% | inhibition at 1 µM ([1]; read-out: % Inhibition Point 1): 2.51% | inhibition at 1 µM ([1]; read-out: % Inhibition Point 2): 0.803% | inhibition at 1 µM ([1]; read-out: % Inhibition mean): 1.66% | inhibition at 1 µM ([2]; read-out: % Inhibition Point 1): 11% | inhibition at 1 µM ([2]; read-out: % Inhibition Point 2): -5% | inhibition at 1 µM ([2]; read-out: % Inhibition mean): 2.81% | inhibition at 1 µM (PIK3CG (p110 gamma); read-out: % Inhibition Point 1): 4.3% | inhibition at 1 µM (PIK3CG (p110 gamma); read-out: % Inhibition Point 2): 13% | inhibition at 1 µM (PIK3CG (p110 gamma); read-out: % Inhibition mean): 8.53%
